According to patent US20180320217A1, “METHODS FOR SAMPLING AND MEASURING ORAL LAVAGE PROTEINS” (The Procter & Gamble Company, priority 2017, published 2018):
Where “and” joins values, the source holds several entries; their conditions need not be identical. Equal values may be shown once. Entries after “also recorded” stand apart in the source; their conditions may differ.

Assays:
oral lavage [1] = assay: Formation of formazan dyes: oral lavage and 1-Methoxy PMS, absence of malate (TABLE 19); type: biochemical, human
[2] = system: Malate dehydrogenase and diaphorase; assay: Formation of formazan dyes: Malate dehydrogenase and diaphorase, absence of malate (TABLE 9); type: biochemical, pig heart
diaphorase [3] = assay: Formation of formazan dyes: NADH and diaphorase, absence of malate (TABLE 7); type: biochemical, Clostridium kluyveri; conditions: NADH and diaphorase, absence of malate
diaphorase [4] = assay: Formation of formazan dyes: NADH, diaphorase and malate (TABLE 8); type: biochemical, Clostridium kluyveri; conditions: NADH, diaphorase and malate
[5] = system: Malate dehydrogenase and diaphorase; assay: Formation of formazan dyes: Malate dehydrogenase, diaphorase and malate (TABLE 10); type: biochemical, pig heart
oral lavage [6] = assay: Formation of formazan dyes: oral lavage and diaphorase, not malate (TABLE 11); type: biochemical, human
diaphorase [7] = assay: Formation of formazan dyes: only diaphorase and malate (TABLE 14); type: biochemical, Clostridium kluyveri; conditions: mean of three experiments
oral lavage [8] = assay: Formation of formazan dyes: oral lavage, malate and diaphorase (TABLE 12); type: biochemical, human; conditions: oral lavage, malate and diaphorase
[9] = Formation of formazan dyes: NADH, malate and 1-methoxy PMS (TABLE 16); type: biochemical
[10] = Formation of formazan dyes: NADH and 1-methoxy PMS, absence of malate (TABLE 15); type: biochemical
[11] = Formation of formazan dyes: control buffer, malate and 1-Methoxy PMS (TABLE 22); type: biochemical
[12] = Formation of formazan dyes: control buffer and 1-Methoxy PMS, absence of malate (TABLE 21); type: biochemical
Malate dehydrogenase = target: T1, Malate dehydrogenase (Sus scrofa, UniProt P00346); assay: Formation of formazan dyes: Malate dehydrogenase and 1-Methoxy PMS, absence of malate (TABLE 17); type: biochemical, pig heart; set-up: L-malate dehydrogenase (pig heart); purchased Sigma-Aldrich 10127248001 / 10127914001
T1 sequence (P00346 25-338): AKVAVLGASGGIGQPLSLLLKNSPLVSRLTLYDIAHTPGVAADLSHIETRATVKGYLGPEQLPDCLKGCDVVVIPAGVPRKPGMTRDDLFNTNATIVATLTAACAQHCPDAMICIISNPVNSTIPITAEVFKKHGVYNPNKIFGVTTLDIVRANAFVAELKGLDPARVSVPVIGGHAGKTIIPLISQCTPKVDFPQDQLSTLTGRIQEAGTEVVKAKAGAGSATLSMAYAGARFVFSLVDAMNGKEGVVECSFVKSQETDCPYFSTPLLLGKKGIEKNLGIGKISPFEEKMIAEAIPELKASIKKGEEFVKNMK

diaphorase [13] = assay: Formation of formazan dyes: only diaphorase, not malate (TABLE 13); type: biochemical, Clostridium kluyveri; conditions: mean of three experiments

2-Benzothiazoryl-3-(4-carboxy-2-methoxyphenyl)-5-[4-(2-sulfoethylcarbamoyl)phenyl]-2H-tetrazolium [WST-4]
Absorbance, formation of formazan dyes (Means) (oral lavage [1]): 0.78 and 1.07 and 1.15 and 1.22
Formation of formazan dyes, absorbance, Means 0 h ([2]; Malate dehydrogenase and diaphorase, absence of malate, 0 h): 0.51
Formation of formazan dyes, absorbance, Means 1 h ([2]; Malate dehydrogenase and diaphorase, absence of malate, 1 h): 0.83
Formation of formazan dyes, absorbance, Means 2 h ([2]; Malate dehydrogenase and diaphorase, absence of malate, 2 h): 0.99
Formation of formazan dyes, absorbance, Means 3 h ([2]; Malate dehydrogenase and diaphorase, absence of malate, 3 h): 1.06
Formation of formazan dyes, absorbance, Means 4 h ([2]; Malate dehydrogenase and diaphorase, absence of malate, 4 h): 1.17
Formation of formazan dyes, absorbance, Means 6 h ([2]; Malate dehydrogenase and diaphorase, absence of malate, 6 h): 1.24
Formation of formazan dyes, absorbance, Means 8 h ([2]; Malate dehydrogenase and diaphorase, absence of malate, 8 h): 1.35
Formation of formazan dyes, absorbance, Means 10 h ([2]; Malate dehydrogenase and diaphorase, absence of malate, 10 h): 1.44
Formation of formazan dyes, absorbance, Means 12 h ([2]; Malate dehydrogenase and diaphorase, absence of malate, 12 h): 1.47
reduction of tetrazolium dye in the absence of substrate malate ([2]; malate dehydrogenase and diaphorase (TABLE 9)): partially reduced
Formation of formazan dyes, absorbance, Means 0 h (diaphorase [3]; 0 h): 1.96
Formation of formazan dyes, absorbance, Means 1 h (diaphorase [3]; 1 h): 2.01
Formation of formazan dyes, absorbance, Means 2 h (diaphorase [3]; 2 h): 2.04
Formation of formazan dyes, absorbance, Means 3 h (diaphorase [3]; 3 h): 2.08
Formation of formazan dyes, absorbance, Means 4 h (diaphorase [3]; 4 h): 2.20
Formation of formazan dyes, absorbance, Means 6 h (diaphorase [3]; 6 h): 2.25
Formation of formazan dyes, absorbance, Means 8 h (diaphorase [3]; 8 h): 2.29
Formation of formazan dyes, absorbance, Means 10 h (diaphorase [3]; 10 h): 2.30
Formation of formazan dyes, absorbance, Means 12 h (diaphorase [3]; 12 h): 2.32
Formation of formazan dyes, absorbance, Means 0 h (diaphorase [4]; 0 h): 1.92
Formation of formazan dyes, absorbance, Means 1 h (diaphorase [4]; 1 h): 1.91
Formation of formazan dyes, absorbance, Means 2 h (diaphorase [4]; 2 h): 1.91
Formation of formazan dyes, absorbance, Means 3 h (diaphorase [4]; 3 h): 1.89
Formation of formazan dyes, absorbance, Means 4 h (diaphorase [4]; 4 h): 1.97
Formation of formazan dyes, absorbance, Means 6 h (diaphorase [4]; 6 h): 1.94
Formation of formazan dyes, absorbance, Means 8 h (diaphorase [4]; 8 h): 1.92
Formation of formazan dyes, absorbance, Means 10 h (diaphorase [4]; 10 h): 1.88
Formation of formazan dyes, absorbance, Means 12 h (diaphorase [4]; 12 h): 1.83
Formation of formazan dyes, absorbance, Means 0 h ([5]; Malate dehydrogenase, diaphorase and malate, 0 h): 0.51
Formation of formazan dyes, absorbance, Means 1 h ([5]; Malate dehydrogenase, diaphorase and malate, 1 h): 0.81
Formation of formazan dyes, absorbance, Means 2 h ([5]; Malate dehydrogenase, diaphorase and malate, 2 h): 0.99
Formation of formazan dyes, absorbance, Means 3 h ([5]; Malate dehydrogenase, diaphorase and malate, 3 h): 1.13
Formation of formazan dyes, absorbance, Means 4 h ([5]; Malate dehydrogenase, diaphorase and malate, 4 h): 1.25
Formation of formazan dyes, absorbance, Means 6 h ([5]; Malate dehydrogenase, diaphorase and malate, 6 h): 1.43
Formation of formazan dyes, absorbance, Means 8 h ([5]; Malate dehydrogenase, diaphorase and malate, 8 h): 1.57
Formation of formazan dyes, absorbance, Means 10 h ([5]; Malate dehydrogenase, diaphorase and malate, 10 h): 1.68
Formation of formazan dyes, absorbance, Means 12 h ([5]; Malate dehydrogenase, diaphorase and malate, 12 h): 1.75
conversion to reduced formazan dyes ([5]; malate dehydrogenase, diaphorase and malate (TABLE 10)): converted to reduced formazan dyes in a time-dependent fashion; also recorded: able to catalyze the reduction
Formation of formazan dyes, absorbance, Means 0 h (oral lavage [6]; oral lavage and diaphorase, not malate, 0 h): 0.55
Formation of formazan dyes, absorbance, Means 1 h (oral lavage [6]; oral lavage and diaphorase, not malate, 1 h): 0.74
Formation of formazan dyes, absorbance, Means 2 h (oral lavage [6]; oral lavage and diaphorase, not malate, 2 h): 0.76
Formation of formazan dyes, absorbance, Means 3 h (oral lavage [6]; oral lavage and diaphorase, not malate, 3 h): 0.80
Formation of formazan dyes, absorbance, Means 4 h (oral lavage [6]; oral lavage and diaphorase, not malate, 4 h): 0.78
Formation of formazan dyes, absorbance, Means 6 h (oral lavage [6]; oral lavage and diaphorase, not malate, 6 h): 0.88
Formation of formazan dyes, absorbance, Means 8 h (oral lavage [6]; oral lavage and diaphorase, not malate, 8 h): 0.90
Formation of formazan dyes, absorbance, Means 10 h (oral lavage [6]; oral lavage and diaphorase, not malate, 10 h): 0.87
Formation of formazan dyes, absorbance, Means 12 h (oral lavage [6]; oral lavage and diaphorase, not malate, 12 h): 0.93
reduction to formazan dyes by pooled oral lavage (oral lavage [6]; pooled oral lavage of high bleeder group, diaphorase, no added malate (TABLE 11)): partially reduced to formazan dyes
Absorbance, formation of formazan dyes (Means) (diaphorase [7]; 0 h): 0.08
Absorbance, formation of formazan dyes (Means) (diaphorase [7]; 1 h): 0.10
Absorbance, formation of formazan dyes (Means) (diaphorase [7]; 2 h): 0.12
Absorbance, formation of formazan dyes (Means) (diaphorase [7]; 3 h): 0.14
Absorbance, formation of formazan dyes (Means) (diaphorase [7]; 4 h): 0.16
Absorbance, formation of formazan dyes (Means) (diaphorase [7]; 6 h): 0.19
Absorbance, formation of formazan dyes (Means) (diaphorase [7]; 8 h): 0.23
Absorbance, formation of formazan dyes (Means) (diaphorase [7]; 10 h): 0.26
Absorbance, formation of formazan dyes (Means) (diaphorase [7]; 12 h): 0.27
Formation of formazan dyes, absorbance, Means 0 h (oral lavage [8]; 0 h): 0.44
Formation of formazan dyes, absorbance, Means 1 h (oral lavage [8]; 1 h): 0.56
Formation of formazan dyes, absorbance, Means 2 h (oral lavage [8]; 2 h): 0.63
Formation of formazan dyes, absorbance, Means 3 h (oral lavage [8]; 3 h): 0.67
Formation of formazan dyes, absorbance, Means 4 h (oral lavage [8]; 4 h): 0.77
Formation of formazan dyes, absorbance, Means 6 h (oral lavage [8]; 6 h): 0.83
Formation of formazan dyes, absorbance, Means 8 h (oral lavage [8]; 8 h): 0.89
Formation of formazan dyes, absorbance, Means 10 h (oral lavage [8]; 10 h): 0.96
Formation of formazan dyes, absorbance, Means 12 h (oral lavage [8]; 12 h): 0.95
Absorbance, formation of formazan dyes (Means) [9]: 1.32 and 1.31 and 1.29 and 1.30
Absorbance, formation of formazan dyes (Means) [10]: 1.52 and 1.57 and 1.64
Means absorbance 0 h [11]: 0.13
Means absorbance 1 h [11]: 0.13
Means absorbance 2 h [11]: 0.13
Means absorbance 3 h [11]: 0.15
Absorbance, formation of formazan dyes (Means) [12]: 0.30 and 0.34 and 0.43 and 0.44
Absorbance, formation of formazan dyes (Means) (Malate dehydrogenase): 0.27 and 0.29 and 0.31 and 0.38
reduction by malate dehydrogenase alone (Malate dehydrogenase): did not catalyze the reduction
Absorbance, formation of formazan dyes (Means) (diaphorase [13]; 0 h): 0.22
Absorbance, formation of formazan dyes (Means) (diaphorase [13]; 1 h): 0.35
Absorbance, formation of formazan dyes (Means) (diaphorase [13]; 2 h): 0.40
Absorbance, formation of formazan dyes (Means) (diaphorase [13]; 3 h): 0.40
Absorbance, formation of formazan dyes (Means) (diaphorase [13]; 4 h): 0.38
Absorbance, formation of formazan dyes (Means) (diaphorase [13]; 6 h): 0.30
Absorbance, formation of formazan dyes (Means) (diaphorase [13]; 8 h): 0.32
Absorbance, formation of formazan dyes (Means) (diaphorase [13]; 10 h): 0.36
Absorbance, formation of formazan dyes (Means) (diaphorase [13]; 12 h): 0.39
